{
  "source": "paper PMC9000719",
  "about": "“Design, Synthesis and Bioactivity Evaluation of Coumarin–BMT Hybrids as New Acetylcholinesterase Inhibitors” (Molecules, 2022)",
  "type_in_all_cases": "biochemical",
  "key": {"[1]": {"target": "T1, Acetylcholinesterase (AChE, E.C. 3.1.1.7, from electric eel) (Electrophorus electricus, UniProt O42275)", "T1 construct": "purchased Sigma Aldrich", "T1 sequence (O42275 24-633)": "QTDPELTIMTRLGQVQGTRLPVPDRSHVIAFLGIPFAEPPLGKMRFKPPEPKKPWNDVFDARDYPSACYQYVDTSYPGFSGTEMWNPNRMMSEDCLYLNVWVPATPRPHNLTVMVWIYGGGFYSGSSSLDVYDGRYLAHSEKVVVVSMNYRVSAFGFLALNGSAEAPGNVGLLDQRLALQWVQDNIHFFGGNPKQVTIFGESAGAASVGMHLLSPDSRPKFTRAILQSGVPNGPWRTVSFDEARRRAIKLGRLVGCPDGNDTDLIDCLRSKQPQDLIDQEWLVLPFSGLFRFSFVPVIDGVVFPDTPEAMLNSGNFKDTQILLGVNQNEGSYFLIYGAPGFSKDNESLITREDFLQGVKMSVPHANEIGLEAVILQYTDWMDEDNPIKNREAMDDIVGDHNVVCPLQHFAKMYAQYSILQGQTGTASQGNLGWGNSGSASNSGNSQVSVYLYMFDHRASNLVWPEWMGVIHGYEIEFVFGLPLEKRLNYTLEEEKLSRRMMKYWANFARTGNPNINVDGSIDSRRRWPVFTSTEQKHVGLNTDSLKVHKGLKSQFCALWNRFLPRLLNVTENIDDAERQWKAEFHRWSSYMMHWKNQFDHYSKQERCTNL", "assay": "Crude screening on AChE inhibition (Ellman method)", "conditions": "2 μM compounds; means ± SEM of at least three independent experiments; normalized as percentage of control"}, "[2]": {"target": "T2, AChE (Electrophorus electricus)", "T2 construct": "purchased Sigma Aldrich", "T2 sequence (O42275 24-633)": "as above", "assay": "biochemical", "conditions": "inhibition constant against AChE; substrate ATCI at two concentrations", "procedure": "(§1) Kinetic characterization was performed using Dixon’s method. […] Assay medium contained DTNB solution 15 mM (40 µL), AChE solution 10 units/mL (50 µL), substrate solutions (10 µL) and various concentrations of tested compounds (20 µL). […] Results were computed and presented on the Lineweaver–Burk plot to determine the Ki value and to distinguish the type of enzyme inhibition."}, "[3]": {"system": "T3, human AChE (Electrophorus electricus)", "T3 construct": "purchased Sigma Aldrich", "T3 sequence (O42275 24-633)": "as above", "assay": "biochemical", "conditions": "Lineweaver–Burk plots", "procedure": "as §1"}},
  "note": "“And” between values parts separate entries of the source, which are not always exact repeats. Equal values may be shown once. “Also recorded” adds a separate entry of the source. Marks after values point to notes of the source that are not given here.",
  "data": [
    {"compound": "2-oxo-7-(trifluoromethoxy)-N-(6-((4,11,11-trimethyl-1,2,3,4-tetrahydro-1,4-methanoacridin-9-yl)amino)hexyl)-2H-chromene-3-carboxamide [Compound 8d]", "values": [
      {"measurement": "Inhibition Ratio (%)", "setting": "[1]", "value": "62.92 ± 3.32 ^e %"}
    ]},
    {"compound": "7-bromo-2-oxo-N-(6-((4,11,11-trimethyl-1,2,3,4-tetrahydro-1,4-methanoacridin-9-yl)amino)hexyl)-2H-chromene-3-carboxamide [Compound 8c]", "values": [
      {"measurement": "Inhibition Ratio (%)", "setting": "[1]", "value": "57.58 ± 3.30 ^fg %"}
    ]},
    {"compound": "CC12CCC(c3c1nc1ccccc1c3NCCCCCNC(=O)c1cc3ccccc3oc1=O)C2(C)C", "note": "(centres unmarked) [Compound 7a, 2-oxo-N-(5-((4,11,11-trimethyl-1,2,3,4-tetrahydro-1,4-methanoacridin-9-yl)amino)pentyl)-2H-chromene-3-carboxamide]", "values": [
      {"measurement": "Inhibition Ratio (%)", "setting": "[1]", "value": "71.11 ± 0.94 ^d %"}
    ]},
    {"compound": "Cc1ccc2oc(=O)c(C(=O)NCCCCCNc3c4c(nc5ccccc35)C3(C)CCC4C3(C)C)cc2c1", "note": "(centres unmarked) [Compound 7b, 6-methyl-2-oxo-N-(5-((4,11,11-trimethyl-1,2,3,4-tetrahydro-1,4-methanoacridin-9-yl)amino)pentyl)-2H-chromene-3-carboxamide]", "values": [
      {"measurement": "Inhibition Ratio (%)", "setting": "[1]", "value": "85.71 ± 1.66 ^bc %"},
      {"measurement": "Ki", "setting": "[2]", "value": 0.19, "unit": "µM"}
    ]},
    {"compound": "CC12CCC(c3c1nc1ccccc1c3NCCCCCNC(=O)c1cc3cc(Br)ccc3oc1=O)C2(C)C", "note": "(centres unmarked) [Compound 7c, 6-bromo-2-oxo-N-(5-((4,11,11-trimethyl-1,2,3,4-tetrahydro-1,4-methanoacridin-9-yl)amino)pentyl)-2H-chromene-3-carboxamide]", "values": [
      {"measurement": "Inhibition Ratio (%)", "setting": "[1]", "value": "50.72 ± 2.98 ^h %"}
    ]},
    {"compound": "CC12CCC(c3c1nc1ccccc1c3NCCCCCNC(=O)c1cc3cc(OC(F)(F)F)ccc3oc1=O)C2(C)C", "note": "(centres unmarked) [Compound 7d, 2-oxo-6-(trifluoromethoxy)-N-(5-((4,11,11-trimethyl-1,2,3,4-tetrahydro-1,4-methanoacridin-9-yl)amino)pentyl)-2H-chromene-3-carboxamide]", "values": [
      {"measurement": "Inhibition Ratio (%)", "setting": "[1]", "value": "47.51 ± 2.65 ^hi %"}
    ]},
    {"compound": "COc1ccc2oc(=O)c(C(=O)NCCCCCNc3c4c(nc5ccccc35)C3(C)CCC4C3(C)C)cc2c1", "note": "(centres unmarked) [Compound 7e, 6-methoxy-2-oxo-N-(5-((4,11,11-trimethyl-1,2,3,4-tetrahydro-1,4-methanoacridin-9-yl)amino)pentyl)-2H-chromene-3-carboxamide]", "values": [
      {"measurement": "Inhibition Ratio (%)", "setting": "[1]", "value": "86.68 ± 2.18 ^b %"},
      {"measurement": "Ki", "setting": "[2]", "value": 0.0651, "unit": "µM"}
    ]},
    {"compound": "COc1ccc2cc(C(=O)NCCCCCNc3c4c(nc5ccccc35)C3(C)CCC4C3(C)C)c(=O)oc2c1", "note": "(centres unmarked) [Compound 7f, 7-methoxy-2-oxo-N-(5-((4,11,11-trimethyl-1,2,3,4-tetrahydro-1,4-methanoacridin-9-yl)amino)pentyl)-2H-chromene-3-carboxamide]", "values": [
      {"measurement": "Inhibition Ratio (%)", "setting": "[1]", "value": "81.70 ± 4.82 ^c %"},
      {"measurement": "Ki", "setting": "[2]", "value": 0.118, "unit": "µM"}
    ]},
    {"compound": "COc1cc2cc(C(=O)NCCCCCNc3c4c(nc5ccccc35)C3(C)CCC4C3(C)C)c(=O)oc2cc1OC", "note": "(centres unmarked) [Compound 7g, 6,7-dimethoxy-2-oxo-N-(5-((4,11,11-trimethyl-1,2,3,4-tetrahydro-1,4-methanoacridin-9-yl)amino)pentyl)-2H-chromene-3-carboxamide]", "values": [
      {"measurement": "Inhibition Ratio (%)", "setting": "[1]", "value": "84.75 ± 1.27 ^bc %"},
      {"measurement": "Ki", "setting": "[2]", "value": 0.153, "unit": "µM"}
    ]},
    {"compound": "CC12CCC(c3c1nc1ccccc1c3NCCCCCCNC(=O)c1cc3ccccc3oc1=O)C2(C)C", "note": "(centres unmarked) [Compound 8a, 2-oxo-N-(6-((4,11,11-trimethyl-1,2,3,4-tetrahydro-1,4-methanoacridin-9-yl)amino)hexyl)-2H-chromene-3-carboxamide]", "values": [
      {"measurement": "Inhibition Ratio (%)", "setting": "[1]", "value": "66.57 ± 1.09 ^de %"}
    ]},
    {"compound": "Cc1ccc2oc(=O)c(C(=O)NCCCCCCNc3c4c(nc5ccccc35)C3(C)CCC4C3(C)C)cc2c1", "note": "(centres unmarked) [Compound 8b]", "values": [
      {"measurement": "Inhibition Ratio (%)", "setting": "[1]", "value": "86.60% and 86.60 ± 2.13 ^b %"},
      {"measurement": "Ki", "setting": "[2]", "value": 0.0492, "unit": "µM"},
      {"measurement": "type of enzyme inhibition", "setting": "[3]", "value": "mixed-type inhibition; also recorded: mixed-type inhibitor"}
    ]},
    {"compound": "COc1ccc2oc(=O)c(C(=O)NCCCCCCNc3c4c(nc5ccccc35)C3(C)CCC4C3(C)C)cc2c1", "note": "(centres unmarked) [Compound 8e, 6-methoxy-2-oxo-N-(6-((4,11,11-trimethyl-1,2,3,4-tetrahydro-1,4-methanoacridin-9-yl)amino)hexyl)-2H-chromene-3-carboxamide]", "values": [
      {"measurement": "Inhibition Ratio (%)", "setting": "[1]", "value": "87.48% and 87.48 ± 0.27 ^b %"},
      {"measurement": "Ki", "setting": "[2]", "value": 0.0508, "unit": "µM"},
      {"measurement": "type of enzyme inhibition", "setting": "[3]", "value": "mixed-type inhibition; also recorded: mixed-type inhibitor"}
    ]},
    {"compound": "COc1ccc2cc(C(=O)NCCCCCCNc3c4c(nc5ccccc35)C3(C)CCC4C3(C)C)c(=O)oc2c1", "note": "(centres unmarked) [Compound 8f, 7-methoxy-2-oxo-N-(6-((4,11,11-trimethyl-1,2,3,4-tetrahydro-1,4-methanoacridin-9-yl)amino)hexyl)-2H-chromene-3-carboxamide]", "values": [
      {"measurement": "Inhibition Ratio (%)", "setting": "[1]", "value": "62.44 ± 1.63 ^e %"}
    ]},
    {"compound": "COc1cc2cc(C(=O)NCCCCCCNc3c4c(nc5ccccc35)C3(C)CCC4C3(C)C)c(=O)oc2cc1OC", "note": "(centres unmarked) [Compound 8g, 6,7-dimethoxy-2-oxo-N-(6-((4,11,11-trimethyl-1,2,3,4-tetrahydro-1,4-methanoacridin-9-yl)amino)hexyl)-2H-chromene-3-carboxamide]", "values": [
      {"measurement": "Inhibition Ratio (%)", "setting": "[1]", "value": "62.74 ± 0.27 ^e %"}
    ]},
    {"compound": "CC12CCC(c3c1nc1ccccc1c3NCCCCCCCNC(=O)c1cc3ccccc3oc1=O)C2(C)C", "note": "(centres unmarked) [Compound 9a, 2-oxo-N-(7-((4,11,11-trimethyl-1,2,3,4-tetrahydro-1,4-methanoacridin-9-yl)amino)heptyl)-2H-chromene-3-carboxamide]", "values": [
      {"measurement": "Inhibition Ratio (%)", "setting": "[1]", "value": "40.65 ± 4.28 ^j %"}
    ]},
    {"compound": "Cc1ccc2oc(=O)c(C(=O)NCCCCCCCNc3c4c(nc5ccccc35)C3(C)CCC4C3(C)C)cc2c1", "note": "(centres unmarked) [Compound 9b, 6-methyl-2-oxo-N-(7-((4,11,11-trimethyl-1,2,3,4-tetrahydro-1,4-methanoacridin-9-yl)amino)heptyl)-2H-chromene-3-carboxamide]", "values": [
      {"measurement": "Inhibition Ratio (%)", "setting": "[1]", "value": "61.56 ± 4.65 ^ef %"}
    ]},
    {"compound": "CC12CCC(c3c1nc1ccccc1c3NCCCCCCCNC(=O)c1cc3cc(Br)ccc3oc1=O)C2(C)C", "note": "(centres unmarked) [Compound 9c, 6-bromo-2-oxo-N-(7-((4,11,11-trimethyl-1,2,3,4-tetrahydro-1,4-methanoacridin-9-yl)amino)heptyl)-2H-chromene-3-carboxamide]", "values": [
      {"measurement": "Inhibition Ratio (%)", "setting": "[1]", "value": "44.05 ± 2.74 ^ij %"}
    ]},
    {"compound": "CC12CCC(c3c1nc1ccccc1c3NCCCCCCCNC(=O)c1cc3cc(OC(F)(F)F)ccc3oc1=O)C2(C)C", "note": "(centres unmarked) [Compound 9d, 2-oxo-6-(trifluoromethoxy)-N-(7-((4,11,11-trimethyl-1,2,3,4-tetrahydro-1,4-methanoacridin-9-yl)amino)heptyl)-2H-chromene-3-carboxamide]", "values": [
      {"measurement": "Inhibition Ratio (%)", "setting": "[1]", "value": "40.35 ± 2.45 ^j %"}
    ]},
    {"compound": "COc1ccc2oc(=O)c(C(=O)NCCCCCCCNc3c4c(nc5ccccc35)C3(C)CCC4C3(C)C)cc2c1", "note": "(centres unmarked) [Compound 9e, 6-methoxy-2-oxo-N-(7-((4,11,11-trimethyl-1,2,3,4-tetrahydro-1,4-methanoacridin-9-yl)amino)heptyl)-2H-chromene-3-carboxamide]", "values": [
      {"measurement": "Inhibition Ratio (%)", "setting": "[1]", "value": "62.15 ± 3.14 ^ef %"}
    ]},
    {"compound": "COc1ccc2cc(C(=O)NCCCCCCCNc3c4c(nc5ccccc35)C3(C)CCC4C3(C)C)c(=O)oc2c1", "note": "(centres unmarked) [Compound 9f, 7-methoxy-2-oxo-N-(7-((4,11,11-trimethyl-1,2,3,4-tetrahydro-1,4-methanoacridin-9-yl)amino)heptyl)-2H-chromene-3-carboxamide]", "values": [
      {"measurement": "Inhibition Ratio (%)", "setting": "[1]", "value": "56.11 ± 2.60 ^g %"}
    ]},
    {"compound": "COc1cc2cc(C(=O)NCCCCCCCNc3c4c(nc5ccccc35)C3(C)CCC4C3(C)C)c(=O)oc2cc1OC", "note": "(centres unmarked) [Compound 9g, 6,7-dimethoxy-2-oxo-N-(7-((4,11,11-trimethyl-1,2,3,4-tetrahydro-1,4-methanoacridin-9-yl)amino)heptyl)-2H-chromene-3-carboxamide]", "values": [
      {"measurement": "Inhibition Ratio (%)", "setting": "[1]", "value": "35.49 ± 3.86 ^k %"}
    ]}
  ]
}
